For `O=C(N[C@H](Cc1cccc(C=C(F)C(F)F)c1)[C@@H](O)c1ccc(F)cc1)c1cccc2c1C=CCCC2` (racemic) [Example 335, N-[(1RS,2SR)-2-(4-fluorophenyl)-2-hydroxy-1-[3-(2,3,3-trifluoro-1-propenyl)benzyl]ethyl]-6,7-dihydro-5H-benzo[a]cycloheptene-1-carboxamide], which melting point is on record?
The melting point was 165 to 167 °C.

Which melting point does the source give for `O=C(N[C@H](Cc1cccc(C=C(F)C(F)F)c1)[C@@H](O)c1ccc(F)cc1)c1ccc(F)c2ccccc12` (racemic) [Example 336, 4-fluoro-N-[(1RS,2SR)-2-(4-fluorophenyl)-2-hydroxy-1-[3-(2,3,3-trifluoro-1-propenyl)benzyl]ethyl]naphthalene-1-carboxamide] here?
The melting point was 184 to 185 °C.

For `CC(C)(C)OC(=O)N[C@H](Cc1cccc(CC(F)(F)C(F)F)c1)[C@@H](O)c1ccc(F)cc1` (racemic) [Example 337, tert-butyl N-[(1RS,2SR)-2-(4-fluorophenyl)-2-hydroxy-1-[3-(2,2,3,3-tetrafluoropropyl)benzyl]ethyl]carbamate], which melting point is on record?
The melting point was 168 to 169 °C.

Which melting point does the source give for `O=C(N[C@H](Cc1cccc(CC(F)(F)C(F)F)c1)[C@@H](O)c1ccc(F)cc1)c1cccc2c1C=CCCC2` (racemic) [Example 338, N-[(1RS,2SR)-2-(4-fluorophenyl)-2-hydroxy-1-[3-(2,2,3,3-tetrafluoropropyl)benzyl]ethyl]-6,7-dihydro-5H-benzo[a]cycloheptene-1-carboxamide] here?
Its melting point is 165 to 166 °C.

With `O=C(N[C@H](Cc1cccc(CC(F)(F)C(F)F)c1)[C@@H](O)c1ccc(F)cc1)c1ccc(F)c2ccccc12` (racemic) [Example 339, 4-fluoro-N-[(1RS,2SR)-2-(4-fluorophenyl)-2-hydroxy-1-[3-(2,2,3,3-tetrafluoropropyl)benzyl]ethyl]naphthalene-1-carboxamide] as the molecule, how does the melting point read?
Its melting point is 172 to 173 °C.

With `O=C(N[C@H](Cc1cccc(CC(F)(F)C(F)F)c1)[C@@H](O)c1ccc(F)cc1)c1cccc2c(Cl)cccc12` (racemic) [Example 340, 5-chloro-N-[(1RS,2SR)-2-(4-fluorophenyl)-2-hydroxy-1-[3-(2,2,3,3-tetrafluoropropyl)benzyl]ethyl]naphthalene-1-carboxamide] as the molecule, how does the melting point read?
The melting point was 174 to 175 °C.

Which melting point does the source give for `CC(C)(C)OC(=O)N[C@H](Cc1cccc(C(F)C(C)(C)F)c1)[C@@H](O)c1ccc(F)cc1` (mixture of isomers) [Example 341, tert-butyl N-[(1RS,2SR)-1-[3-(1,2-difluoro-2-methylpropyl)benzyl]-2-(4-fluorophenyl)-2-hydroxyethyl]carbamate] here?
The melting point was 148 to 149 °C.

With `CC(C)(F)C(F)c1cccc(C[C@@H](NC(=O)c2cccc3c2C=CCCC3)[C@@H](O)c2ccc(F)cc2)c1` (mixture of isomers) [Example 342, N-[(1RS,2SR)-1-[3-(1,2-difluoro-2-methylpropyl)benzyl]-2-(4-fluorophenyl)-2-hydroxyethyl]-6,7-dihydro-5H-benzo[a]cycloheptene-1-carboxamide] as the molecule, how does the melting point read?
The melting point was 102 to 104 °C.

Which melting point does the source give for `CC(C)(C)Cc1ccc(C[C@@H](NC(=O)c2cccc3c2C=CCCC3)[C@@H](O)c2cccc(Cl)c2)cc1` (racemic) [Example 344, N-[(1RS,2SR)-2-(3-chlorophenyl)-2-hydroxy-1-(4-neopentylbenzyl)ethyl]-6,7-dihydro-5H-benzo[a]cycloheptene-1-carboxamide] here?
The melting point was 147 to 149 °C.

For `CC(C)(C)Cc1ccc(C[C@@H](NC(=O)c2ccc(F)c3ccccc23)[C@@H](O)c2cccc(Cl)c2)cc1` (racemic) [Example 345, 4-fluoro-N-[(1RS,2SR)-2-(3-chlorophenyl)-2-hydroxy-1-(4-neopentylbenzyl)ethyl]naphthalene-1-carboxamide], which melting point is on record?
Its melting point is 150 to 151 °C.

With `CC(C)(C)Cc1ccc(C[C@@H](NC(=O)c2cccc3c(Cl)cccc23)[C@@H](O)c2cccc(Cl)c2)cc1` (racemic) [Example 346, 5-chloro-N-[(1RS,2SR)-2-(3-chlorophenyl)-2-hydroxy-1-(4-neopentylbenzyl)ethyl]naphthalene-1-carboxamide] as the molecule, how does the melting point read?
The melting point was 168 to 169 °C.

For `O=C(N[C@H](Cc1cccc(C(=O)C(F)(F)C(F)F)c1)[C@@H](O)c1ccc(F)cc1)c1ccc(F)c2ccccc12` (racemic) [Example 348, 4-fluoro-N-[(1RS,2SR)-2-(4-fluorophenyl)-2-hydroxy-1-[3-(2,2,3,3-tetrafluoropropionyl)benzyl]ethyl]naphthalene-1-carboxamide], which melting point is on record?
The melting point was 160 to 162 °C.

With `C=C(c1cccc(C[C@@H](NC(=O)c2ccc(F)c3ccccc23)[C@@H](O)c2ccc(F)cc2)c1)C(F)(F)C(F)F` (racemic) [Example 349, 4-fluoro-N-[(1RS,2SR)-2-(4-fluorophenyl)-2-hydroxy-1-[3-[1-(1,1,2,2-tetrafluoroethyl)vinyl]benzyl]ethyl]naphthalene-1-carboxamide] as the molecule, how does the melting point read?
The melting point was 162 to 163 °C.

With `O=C(N[C@H](Cc1cccc(C(=O)C(F)(F)C(F)F)c1)[C@@H](O)c1ccc(F)cc1)c1cccc2c(Cl)cccc12` (racemic) [Example 350, 5-chloro-N-[(1RS,2SR)-2-(4-fluorophenyl)-2-hydroxy-1-[3-(2,2,3,3-tetrafluoropropionyl)benzyl]ethyl]naphthalene-1-carboxamide] as the molecule, how does the melting point read?
Its melting point is 154 to 155 °C.

With `CC(C)C(F)(F)Cc1ccc(C[C@@H](NC(=O)OC(C)(C)C)[C@@H](O)c2cccc(Cl)c2)cc1` (racemic) [Example 352, tert-butyl N-[(1RS,2SR)-2-(3-chlorophenyl)-1-[4-(2,2-difluoro-3-methylbutyl)benzyl]-2-hydroxyethyl]carbamate] as the molecule, how does the melting point read?
Its melting point is 139 to 141 °C.

With `CC(C)C(F)(F)Cc1ccc(C[C@@H](NC(=O)c2ccc(F)c3ccccc23)[C@@H](O)c2cccc(Cl)c2)cc1` (racemic) [Example 353, N-[(1RS,2SR)-2-(3-chlorophenyl)-1-[4-(2,2-difluoro-3-methylbutyl)benzyl]-2-hydroxyethyl]-4-fluoronaphthalene-1-carboxamide] as the molecule, how does the melting point read?
Its melting point is 181 to 182 °C.

With `CC(C)C(F)(F)Cc1ccc(C[C@@H](NC(=O)c2cccc3c(Cl)cccc23)[C@@H](O)c2cccc(Cl)c2)cc1` (racemic) [Example 354, 5-chloro-N-[(1RS,2SR)-2-(3-chlorophenyl)-1-[4-(2,2-difluoro-3-methylbutyl)benzyl]-2-hydroxyethyl]naphthalene-1-carboxamide] as the molecule, how does the melting point read?
Its melting point is 170 to 171 °C.

Which melting point does the source give for `CC(C)(C)c1ccc(C[C@@H](NC(=O)c2ccc(F)c3ccccc23)[C@@H](O)c2ccc(F)cc2)cc1` (racemic) [Example 357, N-[(1RS,2SR)-1-(4-tert-butylbenzyl)-2-(4-fluorophenyl)-2-hydroxyethyl]-4-fluoro-1-naphthamide] here?
The melting point was 149 to 150 °C.

Which melting point does the source give for `CC(F)(F)c1cccc(C[C@@H](NC(=O)c2ccc(F)c3ccccc23)[C@@H](O)c2ccc(F)cc2)c1` (racemic) [Example 359, N-[(1RS,2SR)-1-[3-(1,1-difluoroethyl)benzyl]-2-(4-fluorophenyl)-2-hydroxyethyl]-4-fluoro-1-naphthamide] here?
Its melting point is 182 to 183 °C.

For `CC(F)(F)c1cccc(C[C@@H](NC(=O)c2cccc3c2C=CCCC3)[C@@H](O)c2ccc(F)cc2)c1` (racemic) [Example 360, N-[(1RS,2SR)-1-[3-(1,1-difluoroethyl)benzyl]-2-(4-fluorophenyl)-2-hydroxyethyl]-6,7-dihydro-5H-benzo[a]cycloheptene-1-carboxamide], which melting point is on record?
Its melting point is 170 to 171 °C.

Which melting point does the source give for `CC(C)(C)OC(=O)N[C@H](Cc1cccc(OC(F)(F)C(F)F)c1)[C@@H](O)c1csc(-c2ccccc2)n1` (racemic) [Example 361, tert-butyl (1RS,2RS)-2-hydroxy-2-(2-phenyl-1,3-thiazol-4-yl)-1-[3-(1,1,2,2-tetrafluoroethoxy)benzyl]ethylcarbamate] here?
The melting point was 127 to 128 °C.

Which melting point does the source give for `O=C(N[C@H](Cc1cccc(OC(F)(F)C(F)F)c1)[C@@H](O)c1csc(-c2ccccc2)n1)c1ccc(F)c2ccccc12` (racemic) [Example 362, 4-fluoro-N-{(1RS,2RS)-2-hydroxy-2-(2-phenyl-1,3-thiazol-4-yl)-1-[3-(1,1,2,2-tetrafluoroethoxy)benzyl]ethyl}-1-naphthamide] here?
Its melting point is 148 to 150 °C.

Which melting point does the source give for `CC(C)(C)c1ccc(C[C@@H](NC(=O)c2cccc3c(F)cccc23)[C@@H](O)c2ccc(F)cc2)cc1` (racemic) [Example 364, N-[(1RS,2SR)-1-(4-tert-butylbenzyl)-2-(4-fluorophenyl)-2-hydroxyethyl]-5-fluoro-1-naphthamide] here?
The melting point was 148 to 149 °C.

Which melting point does the source give for `CC(C)(C)COc1cccc(C[C@@H](NC(=O)c2ccc(F)c3ccccc23)[C@@H](O)c2cccc(Cl)c2)c1` (racemic) [Example 366, N-[(1RS,2SR)-1-[3-(neopentyloxy)benzyl]-2-(3-chlorophenyl)-2-hydroxyethyl]-4-fluoro-1-naphthamide] here?
The melting point was 165 to 166 °C.

For `CC(C)(C)COc1cccc(C[C@@H](NC(=O)c2cccc3c(Cl)cccc23)[C@@H](O)c2cccc(Cl)c2)c1` (racemic) [Example 367, N-[(1RS,2SR)-1-[3-(neopentyloxy)benzyl]-2-(3-chlorophenyl)-2-hydroxyethyl]-5-chloro-1-naphthamide], which melting point is on record?
Its melting point is 142 to 143 °C.

With `CC(C)(C)COc1cccc(C[C@@H](NC(=O)c2cccc3c2C=CCCC3)[C@@H](O)c2cccc(Cl)c2)c1` (racemic) [Example 368, N-[(1RS,2SR)-1-[3-(neopentyloxy)benzyl]-2-(3-chlorophenyl)-2-hydroxyethyl]-6,7-dihydro-5H-benzo[a]cycloheptene-1-carboxamide] as the molecule, how does the melting point read?
Its melting point is 128 to 129 °C.

Which melting point does the source give for `CC(C)(C)c1cccc(C[C@@H](NC(=O)c2ccc(F)c3ccccc23)[C@@H](O)c2cccc(Cl)c2)c1` (racemic) [Example 369, N-[(1RS,2SR)-1-[3-(tert-butyl)benzyl]-2-(3-chlorophenyl)-2-hydroxyethyl]-4-fluoro-1-naphthamide] here?
The melting point was 76 to 78 °C.

For `CC(C)(C)c1cccc(C[C@@H](NC(=O)c2cccc3c(Cl)cccc23)[C@@H](O)c2cccc(Cl)c2)c1` (racemic) [Example 371, N-[(1RS,2SR)-1-[3-(tert-butyl)benzyl]-2-(3-chlorophenyl)-2-hydroxyethyl]-5-chloro-1-naphthamide], which melting point is on record?
The melting point was 91 to 93 °C.
